In patent US6861390B2, “Derivatives of UK-2A” (priority 2001, dated 2005):

Legend:
[1] = system: Phytophthora infestans (PHYTIN); assay: microbe, parasite or virus in culture; format: cell-based; conditions: in Secale cereale, read-out: T8 PHYTIN in vitro Growth Inhibition
[2] = system: Stagonospora nodorum (Leptosphaeria nodorum, LEPTNO); assay: microbe, parasite or virus in culture; format: cell-based; conditions: Parastagonospora nodorum, read-out: T7 LEPTNO in vitro Growth Inhibition
[3] = system: Magnaporthe grisea (Pyricularia oryzae, PYRIOR); assay: microbe, parasite or virus in culture; format: cell-based; conditions: read-out: T9 PYRIOR in vitro Growth Inhibition
[4] = system: Leptosphaeria nodorum (LEPTNO); assay: Glume Blotch of Wheat, whole plant 24 Hour Protectant (T2); conditions: Parastagonospora nodorum; wheat (cultivar Yuma), sprayed at 100 ppm, inoculated after 24 hours; read-out: T2 LEPTNO in vivo 1 Day Protectant, control of fungal infection
[5] = system: Puccinia recondita (PUCCRT); assay: Brown Rust of Wheat, whole plant 24 Hour Protectant (T5); conditions: wheat (cultivar Yuma), sprayed at 100 ppm, inoculated after 24 hours, read-out: T5 PUCCRT in vivo 1 Day Protectant, control of fungal infection
[6] = system: Septoria tritici (SEPTTR); assay: Leaf Blotch of Wheat, whole plant 24 Hour Protectant (T6); conditions: Zymoseptoria tritici; wheat (cultivar Monon), sprayed at 100 ppm, inoculated after 24 hours; read-out: T6 SEPTTR in vivo 1 Day Protectant, control of fungal infection
[7] = system: Erysiphe graminis (ERYSGT); assay: Powdery Mildew of Wheat, whole plant 24 Hour Protectant (T1); conditions: Blumeria graminis, in Triticum aestivum, read-out: T1 ERYSGT in vivo 1 Day Protectant, control of fungal infection
Procedure: Compound formulation was accomplished by dissolving technical materials in acetone, with serial dilutions then made in acetone to obtain desired concentrations. Final treatment volumes were obtained by adding 9 volumes 0.01% Triton X-100.
Powdery Mildew of Wheat (Erysiphe graminis—ERYSGT) (24 Hour Protectant): Wheat (cultivar Monon) was grown in a soilless peat-based potting mixture (“Metromix”) and mineral soil (50/50 mix) until the seedlings were 10-20 cm tall. These plants were then sprayed to run-off with the test compound at a rate of 100 ppm. After 24 hours the test plants were inoculated by dusting with conidia from powdery mildew infected wheat plants. The plants were then transferred to the greenhouse until disease developed on the untreated control plants.

[8] = system: Phytophthora infestans (PHYTIN); assay: whole plant or invertebrate; conditions: in Solanum lycopersicum, 24 h, read-out: T3 PHYTIN in vivo 1 Day Protectant, control of fungal infection
[9] = system: Mycosphaerella graminicola (Septoria tritici, SEPTTR); assay: microbe, parasite or virus in culture; format: cell-based; conditions: Zymoseptoria tritici, read-out: T11 SEPTTR in vitro Growth Inhibition
Ustilago maydis (USTIMA) = assay: microbe, parasite or virus in culture; format: cell-based; conditions: Mycosarcoma maydis, read-out: T12 USTIMA in vitro Growth Inhibition
[10] = system: Rhizoctonia solani (RHIZSO); assay: microbe, parasite or virus in culture; format: cell-based; conditions: read-out: T10 RHIZSO in vitro Growth Inhibition

Structure (SMILES)	inhibition at 25 ppm [1] [%]	inhibition at 25 ppm [2] [%]	inhibition at 25 ppm [3] [%]	pest or weed control at 100 ppm [4] [%]	pest or weed control at 100 ppm [5] [%]	pest or weed control at 100 ppm [6] [%]	pest or weed control at 100 ppm [7] [%]	pest or weed control at 100 ppm [8] [%]	inhibition at 25 ppm [9] [%]	inhibition at 25 ppm (Ustilago maydis (USTIMA)) [%]	inhibition at 25 ppm [10] [%]
CCOCC(=O)OCOc1c(OC)ccnc1C(=O)N[C@H]1COC(=O)[C@H](Cc2ccccc2)[C@@H](OCC(C)C)[C@H](C)OC1=O [Compound 59]	> 80	> 80	> 80	75 to 100	75 to 100	75 to 100	75 to 100	< 25	> 80	> 80	< 80
CCCO[C@H]1[C@H](C)OC(=O)[C@@H](NC(=O)c2nccc(OC)c2OCOC(=O)COCC)COC(=O)[C@@H]1Cc1ccccc1 [Compound 60]	> 80	> 80	> 80	75 to 100	75 to 100	75 to 100	75 to 100	< 25	> 80	> 80	< 80
COc1ccnc(C(=O)N[C@H]2COC(=O)[C@H](Cc3ccccc3)[C@@H](OCC(C)C)[C@H](C)OC2=O)c1OCOC(=O)C1CCCC1 [Compound 61]	< 80	> 80	> 80	75 to 100	75 to 100	75 to 100	75 to 100	< 25	> 80	> 80	< 80
CCCO[C@H]1[C@H](C)OC(=O)[C@@H](NC(=O)c2nccc(OC)c2OCOC(=O)C2CCCC2)COC(=O)[C@@H]1Cc1ccccc1 [Compound 62]	< 80	> 80	< 80	75 to 100	75 to 100	75 to 100	75 to 100	< 25	> 80	> 80	< 80
CCCC(=O)OCOc1c(OC)ccnc1C(=O)N[C@H]1COC(=O)[C@H](Cc2ccccc2)[C@@H](OCC(C)C)[C@H](C)OC1=O [Compound 63]	< 80	> 80	> 80	75 to 100	75 to 100	75 to 100	75 to 100	< 25	> 80	< 80	< 80
CCCO[C@H]1[C@H](C)OC(=O)[C@@H](NC(=O)c2nccc(OC)c2OCOC(=O)CCC)COC(=O)[C@@H]1Cc1ccccc1 [Compound 64]	< 80	> 80	> 80	75 to 100	75 to 100	75 to 100	75 to 100	< 25	> 80	< 80	< 80
CCOCC(=O)OCOc1c(OC)ccnc1C(=O)N[C@H]1COC(=O)[C@H](Cc2ccccc2)[C@@H](OCSC)[C@H](C)OC1=O [Compound 72]	< 80	> 80	> 80	75 to 100	75 to 100	25 to 74	25 to 74	< 25	> 80	> 80	< 80
COc1ccnc(C(=O)N[C@H]2COC(=O)[C@H](Cc3ccccc3)[C@@H](OCSC)[C@H](C)OC2=O)c1OCOC(=O)C1CCCC1 [Compound 73]	< 80	> 80	> 80	75 to 100	75 to 100	75 to 100	25 to 74	< 25	> 80	> 80	< 80
